The test system of one experiment is Mus musculus. The experiment can be described thus: Reduction in circulating free fatty acids in food-deprived C57/B16 mouse at 100 mg/kg, ip measured after 30 mins by NEFA assay. It is filed as functional, organism-based.
The test system of a further experiment is Rattus norvegicus. The experiment can be described thus: Reduction in circulating free fatty acids in food-deprived Sprague-Dawley rat at 1 to 100 mg/kg, po measured after 10 to 240 mins post dose by NEFA assay. In kind it is functional, organism-based.
The next experiment concerns Adipocyte. The experiment can be described thus: Inhibition of lipolysis in Sprague-Dawley rat epididymal adipocytes pre-incubated for 10 mins before theophylline addition followed by further incubation for 3 hrs by microplate reader based assay. In kind it is functional, cell-based.

The structures appear in SMILES notation. Activity calls are given as the source filed them. The calls are words filed in the database; no cut-off is given here.

As for `O=C(O)c1cccnc1`, the inhibition result with Mus musculus is “Active”. The IC50 is the point on the concentration scale where inhibition reaches its midpoint. Low values mean greater potency in that assay, high ones weaker potency in that assay. For the molecule `Oc1ccc2ncn(-c3ccccc3Cl)c2n1`, the inhibition result in the experiment on Rattus norvegicus and in the experiment with Mus musculus was “Active” each time. In the experiment with Adipocyte, this molecule had an IC50 of 234 nM. `Oc1ccc2ncn(-c3ccccc3C(F)(F)F)c2n1`: the inhibition entry in the experiment on Mus musculus is “Active”.

Values taken from ChEMBL document CHEMBL3714758, “3H-imidazo[4,5-b]pyridin-5-ol derivatives useful in the treatment of GPR81 receptor disorders” (2013).
